Test system: 889142-216-R-J1-PDC complex spheroid viability
Assay: Anticancer human tumor 889142-216-R-J1-PDC patient-derived bladder carcinoma cell line growth inhibition [POLQ]
Conditions: for IC50: curve of first compound; for viability, T/C: stronger effect = lower value
How it was run: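 Complex spheroid viability model combining PDC tumour cells with endothelial (HUVEC) and MSC stromal cells. Novobiocin, ART-558 or RP6685 were tested singly and in combination with standard and investigational anticancer drugs. Each was titrated in half-log steps from near clinical Cmax, or from 10 microM where Cmax was unknown.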

[1] = second compound 0.0316 µM, first compound 0.0316 µM
[2] = second compound 0.0316 µM, first compound 0.1 µM
[3] = second compound 0.0316 µM, first compound 0.316 µM
[4] = second compound 0.0316 µM, first compound 1 µM
[5] = second compound 0.0316 µM, first compound 3.16 µM
[6] = second compound 0.0316 µM, first compound 10 µM
[7] = second compound 0.1 µM, first compound 0.0316 µM
[8] = second compound 0.1 µM, first compound 0.1 µM
[9] = second compound 0.1 µM, first compound 0.316 µM
[10] = second compound 0.1 µM, first compound 1 µM
[11] = second compound 0.1 µM, first compound 3.16 µM
[12] = second compound 0.1 µM, first compound 10 µM
[13] = second compound 0.316 µM, first compound 0.0316 µM
[14] = second compound 0.316 µM, first compound 0.1 µM
[15] = second compound 0.316 µM, first compound 0.316 µM
[16] = second compound 0.316 µM, first compound 1 µM
[17] = second compound 0.316 µM, first compound 3.16 µM
[18] = second compound 0.316 µM, first compound 10 µM
[19] = second compound 1 µM, first compound 0.0316 µM
[20] = second compound 1 µM, first compound 0.1 µM
[21] = second compound 1 µM, first compound 0.316 µM
[22] = second compound 1 µM, first compound 1 µM
[23] = second compound 1 µM, first compound 3.16 µM
[24] = second compound 1 µM, first compound 10 µM
[25] = second compound 3.16 µM, first compound 0.0316 µM
[26] = second compound 3.16 µM, first compound 0.1 µM
[27] = second compound 3.16 µM, first compound 0.316 µM
[28] = second compound 3.16 µM, first compound 1 µM
[29] = second compound 3.16 µM, first compound 3.16 µM
[30] = second compound 3.16 µM, first compound 10 µM
[31] = second compound 10 µM, first compound 0.0316 µM
[32] = second compound 10 µM, first compound 0.1 µM
[33] = second compound 10 µM, first compound 0.316 µM
[34] = second compound 10 µM, first compound 1 µM
[35] = second compound 10 µM, first compound 3.16 µM
[36] = second compound 10 µM, first compound 10 µM
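Also: spheroids exposed to compounds for seven days.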
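For viability, T/C in this document: 100% = DMSO vehicle control viability.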

COc1ccc([C@@H](O)c2cc(-c3ncnc4cc(N5CCOCC5)ccc34)c(F)cc2Cl)nn1 + Cc1cccc(N(C)C(=O)C2C(O)CCN2c2nc(C)cc(C(F)(F)F)c2C#N)c1 was tested, and the IC50 (second compound 0.0316 µM) was 3.76 µM, the IC50 (second compound 0.1 µM) was 2.71 µM and the IC50 (second compound 0.316 µM) was 2.26 µM. The IC50 (second compound 1 µM) was 2.85 µM, the IC50 (second compound 3.16 µM) was 3.89 µM and the IC50 (second compound 10 µM) was 1.85 µM. For the same molecule, the viability, T/C [1] was 123%, the viability, T/C [2] was 81.2% and the viability, T/C [3] was 102%. The viability, T/C [4] was 69.6%, the viability, T/C [5] was 47.6% and the viability, T/C [6] was 36.8%. It also gave a viability, T/C [7] of 99.5%, a viability, T/C [8] of 98.8% and a viability, T/C [9] of 97.7%. It also gave a viability, T/C [10] of 67.1%, a viability, T/C [11] of 51.1% and a viability, T/C [12] of 40.9%. The viability, T/C [13] was 106%, the viability, T/C [14] was 103% and the viability, T/C [15] was 90.3%. The viability, T/C [16] was 59.6%, the viability, T/C [17] was 49.7% and the viability, T/C [18] was 35.5%. It also gave a viability, T/C [19] of 103%, a viability, T/C [20] of 112% and a viability, T/C [21] of 90.3%. The viability, T/C [22] was 66.7%, the viability, T/C [23] was 52.5% and the viability, T/C [24] was 35.9%. It also gave a viability, T/C [25] of 94.8%, a viability, T/C [26] of 79.8% and a viability, T/C [27] of 64.4%. For the same molecule, the viability, T/C [28] was 70%, the viability, T/C [29] was 58.6% and the viability, T/C [30] was 35.2%. For the same molecule, the viability, T/C [31] was 91.2%, the viability, T/C [32] was 80.5% and the viability, T/C [33] was 63.6%. The viability, T/C [34] was 53.6%, the viability, T/C [35] was 53.6% and the viability, T/C [36] was 28.9%.

Work on CCc1cc2c(N3CCc4c(cc(Cn5ccnc5)cc4-c4cn(C)nc4C(F)(F)F)C3=O)cc(C)nc2c(OC)n1 + Nc1ccc(C#CCN(C(=O)Cc2ncc(C(F)(F)F)cc2C(F)(F)F)c2ccc(F)cc2)nn1 yielded an IC50 (second compound 0.0316 µM) of over 10 µM, an IC50 (second compound 0.1 µM) of over 10 µM and an IC50 (second compound 0.316 µM) of over 10 µM. The IC50 (second compound 1 µM) was over 10 µM, the IC50 (second compound 3.16 µM) was over 10 µM and the IC50 (second compound 10 µM) was over 10 µM. The viability, T/C [1] was 98.2%, the viability, T/C [2] was 96.9% and the viability, T/C [3] was 109%. The viability, T/C [4] was 126%, the viability, T/C [5] was 108% and the viability, T/C [6] was 80.2%. The viability, T/C [7] was 123%, the viability, T/C [8] was 97.6% and the viability, T/C [9] was 126%. It also gave a viability, T/C [10] of 133%, a viability, T/C [11] of 113% and a viability, T/C [12] of 79.5%. For the same molecule, the viability, T/C [13] was 104%, the viability, T/C [14] was 119% and the viability, T/C [15] was 123%. The viability, T/C [16] was 135%, the viability, T/C [17] was 126% and the viability, T/C [18] was 75.2%. It also gave a viability, T/C [19] of 125%, a viability, T/C [20] of 116% and a viability, T/C [21] of 132%. It also gave a viability, T/C [22] of 135%, a viability, T/C [23] of 109% and a viability, T/C [24] of 67.9%. The viability, T/C [25] was 109%, the viability, T/C [26] was 125% and the viability, T/C [27] was 119%. The viability, T/C [28] was 114%, the viability, T/C [29] was 116% and the viability, T/C [30] was 97.3%. The viability, T/C [31] was 97.8%, the viability, T/C [32] was 126% and the viability, T/C [33] was 112%. For the same molecule, the viability, T/C [34] was 124%, the viability, T/C [35] was 104% and the viability, T/C [36] was 93.4%.

CCc1cc2c(N3CCc4c(cc(Cn5ccnc5)cc4-c4cn(C)nc4C(F)(F)F)C3=O)ccnc2c(OC)n1 + Cc1cccc(N(C)C(=O)C2C(O)CCN2c2nc(C)cc(C(F)(F)F)c2C#N)c1 showed an IC50 (second compound 0.0316 µM) of over 10 µM, an IC50 (second compound 0.1 µM) of over 10 µM and an IC50 (second compound 0.316 µM) of over 10 µM. The IC50 (second compound 1 µM) was over 10 µM, the IC50 (second compound 3.16 µM) was over 10 µM and the IC50 (second compound 10 µM) was over 10 µM. It also gave a viability, T/C [1] of 110%, a viability, T/C [2] of 98.7% and a viability, T/C [3] of 121%. The viability, T/C [4] was 125%, the viability, T/C [5] was 127% and the viability, T/C [6] was 103%. The viability, T/C [7] was 95.2%, the viability, T/C [8] was 116% and the viability, T/C [9] was 120%. It also gave a viability, T/C [10] of 123%, a viability, T/C [11] of 102% and a viability, T/C [12] of 87.3%. For the same molecule, the viability, T/C [13] was 116%, the viability, T/C [14] was 115% and the viability, T/C [15] was 130%. The viability, T/C [16] was 140%, the viability, T/C [17] was 132% and the viability, T/C [18] was 76.8%. The viability, T/C [19] was 93%, the viability, T/C [20] was 85.7% and the viability, T/C [21] was 148%. It also gave a viability, T/C [22] of 122%, a viability, T/C [23] of 127% and a viability, T/C [24] of 74.5%. The viability, T/C [25] was 85.3%, the viability, T/C [26] was 107% and the viability, T/C [27] was 128%. For the same molecule, the viability, T/C [28] was 115%, the viability, T/C [29] was 109% and the viability, T/C [30] was 75.8%. For the same molecule, the viability, T/C [31] was 86.5%, the viability, T/C [32] was 88% and the viability, T/C [33] was 102%. It also gave a viability, T/C [34] of 87.6%, a viability, T/C [35] of 92.9% and a viability, T/C [36] of 74.3%.

Source: PubChem BioAssay AID1963831 (Molecular Pharmacology Branch, DTP, NCI, 2024)
